Data set [1] is described as follows: Particle size determination by Malvern laser particle size analyzer, wet method. It is filed as physicochemical. The settings on record: pulverized raw material; dispersant 0.5% aqueous Tween 80. As for the experimental part: The initial particle size D90 of the raw material nitroxoline or nitroxoline lysine salt was more than 100 μm. The raw material was pulverized with the mechanical mill to obtain the raw material having the particle size I, II, III or V in the following Table 1. The raw material was pulverized with the jet mill to obtain the raw material having the particle size IV in the following Table 1.
Determination was carried out on the Malvern laser particle size analyzer MS2000 by wet method according to the operation requirements of the instrument, the dispersant was an aqueous Tween 80 solution, and the mass fraction of Tween 80 in the aqueous solution was 0.5%.

Data set [2] has as its target T1, silence information regulator 2-related enzyme SIRT1 (Homo sapiens, UniProt Q96EB6).
T1 construct: host or cells: vascular endothelial cells
T1 sequence (Q96EB6 1-747): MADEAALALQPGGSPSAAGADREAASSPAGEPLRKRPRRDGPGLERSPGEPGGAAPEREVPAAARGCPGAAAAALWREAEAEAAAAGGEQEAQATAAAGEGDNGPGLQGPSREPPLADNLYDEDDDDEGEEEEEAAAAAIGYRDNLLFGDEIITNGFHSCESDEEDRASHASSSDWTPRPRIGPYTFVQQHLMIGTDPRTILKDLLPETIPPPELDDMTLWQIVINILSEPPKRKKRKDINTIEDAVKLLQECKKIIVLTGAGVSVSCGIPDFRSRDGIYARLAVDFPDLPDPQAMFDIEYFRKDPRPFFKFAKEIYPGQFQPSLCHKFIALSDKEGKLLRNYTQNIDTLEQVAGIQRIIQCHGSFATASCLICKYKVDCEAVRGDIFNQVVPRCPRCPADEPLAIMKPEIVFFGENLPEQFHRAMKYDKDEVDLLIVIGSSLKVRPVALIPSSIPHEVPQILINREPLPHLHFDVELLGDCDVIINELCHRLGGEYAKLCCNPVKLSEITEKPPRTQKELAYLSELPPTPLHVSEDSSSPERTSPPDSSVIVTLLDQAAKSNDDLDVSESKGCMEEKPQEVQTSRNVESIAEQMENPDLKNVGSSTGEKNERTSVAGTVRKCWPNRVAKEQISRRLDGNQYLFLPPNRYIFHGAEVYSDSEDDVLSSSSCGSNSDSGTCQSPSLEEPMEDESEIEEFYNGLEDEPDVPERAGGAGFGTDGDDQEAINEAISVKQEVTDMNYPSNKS
The following applies: vascular endothelial cells; cited from earlier work.

Data set [3] concerns the target T2, methionine aminopeptidase MetAP2 (Homo sapiens, UniProt P50579).
T2 construct: host or cells: vascular endothelial cells
The settings on record: vascular endothelial cells; cited from earlier work.

The nature of data set [4]: Solubility and dissolution of nitroxoline in aqueous media. It is filed as physicochemical. The following applies: 0.1 mol/L hydrochloric acid, water and phosphate buffer (pH 6.8) at 37° C. From the text:
In addition, the resulting nitroxoline tablets have uniform content, narrow variation range in hardness, and good fluidity and compressibility.

The conditions of data set [5]: low solubility and high permeability; cited from earlier work.

T2 sequence (P50579 whole entry): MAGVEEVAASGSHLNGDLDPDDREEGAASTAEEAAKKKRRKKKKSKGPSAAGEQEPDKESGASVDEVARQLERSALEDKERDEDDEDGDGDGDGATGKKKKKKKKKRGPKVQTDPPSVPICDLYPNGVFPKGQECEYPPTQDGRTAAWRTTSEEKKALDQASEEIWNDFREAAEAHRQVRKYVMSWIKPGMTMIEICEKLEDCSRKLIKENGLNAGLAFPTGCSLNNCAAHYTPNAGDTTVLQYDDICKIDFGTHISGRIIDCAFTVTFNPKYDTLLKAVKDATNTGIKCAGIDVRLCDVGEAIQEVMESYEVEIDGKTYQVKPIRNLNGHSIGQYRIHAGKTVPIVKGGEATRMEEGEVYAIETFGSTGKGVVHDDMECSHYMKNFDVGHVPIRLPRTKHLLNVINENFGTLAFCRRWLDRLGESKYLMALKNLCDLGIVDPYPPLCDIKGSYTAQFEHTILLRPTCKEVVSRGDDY

Turning to `O=[N+]([O-])c1ccc(O)c2ncccc12` [IV (Nitroxoline), Nitroxoline], in data set [1], the “Particle size D10” value worked out at 0.12 μm, the “Particle size D50” value was determined as 4.58 μm and the “Particle size D90” value is given as 12.61 μm.

`O=[N+]([O-])c1ccc(O)c2ncccc12` [nitroxoline, 5-nitro-8-hydroxyquinoline]: the “Inhibition of SIRT1” value in data set [2] is reported as “inhibit”. The “Inhibition of MetAP2” value in data set [3] was “inhibit”. In data set [4], the Solubility and dissolution entry was “low solubility and slow dissolution”. The BCS class entry in data set [5] was “BCS class II”.

With `O=[N+]([O-])c1ccc(O)c2ncccc12` [III (Nitroxoline), Nitroxoline], in data set [1], the “Particle size D10” value is on record as 3.44 μm, the “Particle size D50” value stood at 11.02 μm and the “Particle size D90” value amounted to 42.55 μm.

For `O=[N+]([O-])c1ccc(O)c2ncccc12` [II (Nitroxoline), Nitroxoline], in data set [1], the “Particle size D10” value came out at 3.99 μm, the “Particle size D50” value came to 14.95 μm and the “Particle size D90” value is on record as 70.58 μm.

Take `O=[N+]([O-])c1ccc(O)c2ncccc12` [I (Nitroxoline), Nitroxoline]: in data set [1], the “Particle size D10” value was 5.66 μm, the “Particle size D50” value came to 33.60 μm and the “Particle size D90” value was found to be 99.31 μm.

On to `NCCCC[C@H](N)C(=O)O.O=[N+]([O-])c1ccc(O)c2ncccc12` [V (Nitroxoline lysine salt), Nitroxoline lysine salt], for which, in data set [1], the “Particle size D10” value is 3.67 μm, the “Particle size D50” value is listed as 10.88 μm and the “Particle size D90” value worked out at 43.29 μm.

The record behind these values is patent US20230000853A1, “PHARMACEUTICAL COMPOSITION CONTAINING NITROXOLINE, NITROXOLINE TABLET, PREPARATION METHOD THEREFOR AND USE THEREOF” (JIANGSU YAHONG MEDITECH CO., LTD., priority 2019, published 2023).
